Experimental data taken from patent US7652020B2, “Compounds for the treatment of inflammatory disorders” (Schering Corporation, priority 2004, dated 2010).

Each molecule was assayed against T1, purified catalytic domain of recombinant human TACE (rhTACEc) (Homo sapiens, UniProt P78536, N452Q/S266A) (assay: TACE kinetic assay: cleavage of internally quenched peptide substrate SPDL-3, fluorescence). Conditions: TACE inhibitory activity, class symbols; read-out: Ki.
T1 construct: Residue 215 to 477 with two mutation (S266A and N452Q) and a 6×His tail; 6xHis (C); made in house; host or cells: baculovirus/Hi5 insect cells
Type: biochemical

T1 sequence (P78536 215-477 S266A/N452Q): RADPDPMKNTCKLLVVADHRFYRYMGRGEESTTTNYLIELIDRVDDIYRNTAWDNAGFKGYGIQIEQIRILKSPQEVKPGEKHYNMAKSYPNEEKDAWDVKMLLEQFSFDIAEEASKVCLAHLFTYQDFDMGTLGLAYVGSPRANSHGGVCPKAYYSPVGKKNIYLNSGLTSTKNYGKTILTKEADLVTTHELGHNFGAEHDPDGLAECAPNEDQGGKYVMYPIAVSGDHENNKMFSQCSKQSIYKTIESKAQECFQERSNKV

Compared with `C[C@@H](NC(=O)[C@H](O)[C@@H](O)C(=O)N1Cc2cccnc2C1)c1ccc(-c2cccc(OCCC3CCCCC3)c2)cc1` [Compound 2353B], `C[C@@H](NC(=O)[C@](C)(O)[C@@H](O)C(=O)N1CCc2ncccc2C1)c1ccc(-n2cccn2)cc1` [Compound 2078] is higher in Ki: 20 to 100 nM for the first, 100 to 1000 nM for the second. The first binds more tightly here.

Compared with `N#Cc1cc(F)ccc1N1CCC(CNC(=O)[C@H](N)[C@@H](O)C(=O)N2CCCC2)CC1` [Compound 2460], `O=C(NCC1CCN(c2ccc(F)cc2OCCC2CCCCC2)CC1)[C@H](O)[C@@H](O)C(=O)N1CCCC1` [Compound 2159] is lower in Ki: greater than 1000 nM for the first, 20 to 100 nM for the second.

First: C[C@@H](NC(=O)[C@H](O)[C@@H](O)C(=O)N1CCc2cn[nH]c2C1)c1ccc(-n2cccn2)cc1 [Compound 2076]
Second: CNc1nc([C@H]2CCCN2C(=O)[C@H](O)[C@@H](O)C(=O)N[C@H](C)c2ccc(-n3cccn3)cc2)c(C#N)s1 [Compound 2269]
The Ki of the first is higher: 20 to 100 nM for the first, less than 20 nM for the second. The second binds more tightly here.

`CC(C)Nc1nc([C@H]2c3ccccc3CCN2C(=O)[C@H](O)[C@@H](O)C(=O)N[C@H](C)c2ccc(-n3cccn3)cc2)cs1` [Compound 2588] and `CCNc1nc([C@@H]2c3ccccc3CN2C(=O)[C@H](O)[C@@H](O)C(=O)N[C@H](C)c2ccc(-n3cccn3)cc2)cs1` [Compound 2595] cannot be ordered by Ki: less than 20 nM for the first, less than 20 nM for the second.

First: O=C([C@H](O)[C@@H](O)c1cncc(N2CCN(c3ccccc3)CC2)n1)N1Cc2ccccc2C1 [Compound 2393]
Second: Cc1cccc2c1CN(C(=O)[C@H](O)[C@@](C)(O)C(=O)N[C@H](C)c1ccc(-n3cccn3)cc1)C2 [Compound 2446]
The Ki of the first is higher: greater than 1000 nM for the first, 20 to 100 nM for the second. The second binds more tightly here.

`Cn1c(Br)cnc1[C@H](O)[C@@H](O)C(=O)NCC1CCN(c2ccc(F)cc2C#N)CC1` [Compound 2372] gave a Ki greater than 1000 nM.

Same assay, conditions: TACE, representative compounds, numeric values; read-out: Ki

Going from `CCOC(=O)c1ccccc1-c1ccc(CNC(=O)[C@H](O)[C@@H](O)C(=O)N2CCC[C@@H]2c2ccccc2)cc1` to `C[C@@H](NC(=O)[C@H](O)[C@@H](O)C(=O)N1CCC[C@@H]1c1ccn(-c2ccccc2)n1)c1ccc(-n2cccn2)cc1` [drawing 1318], the Ki falls from 3.6 nM to 2.3 nM (1.6-fold).

Compared with `CNc1nc([C@H]2c3ccccc3CCN2C(=O)[C@H](O)[C@@H](O)C(=O)N[C@H](C)c2ccc(-n3cccn3)cc2)cs1` [drawing 1310], `C[C@@H](NC(=O)[C@H](O)[C@@H](O)C(=O)N1CC=C[C@@H]1c1cccc(Cl)c1)c1ccc(-n2cccn2)cc1` [drawing 1295] is 2.9-fold lower in Ki: 1.4 nM for the first, 0.49 nM for the second.

Work on `Cc1nc2ccccc2n1Cc1csc(CNC(=O)[C@H](O)[C@@H](O)C(=O)N2CCCC2c2cccc(N(C)C)c2)n1` (stereo partly shown) yielded a Ki of 1 nM.
